Results published in paper PMC9944867, “Mechanistic in vitro studies indicate that the clinical drug–drug interactions between protease inhibitors and rosuvastatin are driven by inhibition of intestinal BCRP and hepatic OATP1B1 with minimal contribution from OATP1B3, NTCP and OAT3” (Pharmacology Research & Perspectives, 2023).
Values joined by “and” are separate entries in the source; they are usually repeats but may differ in a detail not shown here. Equal entries are not always repeated. Where two headings read alike, the source gives them in different places.

Legend:
human NTCP (SLC10A1) [1] = molecular target: T1, human NTCP (SLC10A1) (Homo sapiens, UniProt Q14973); test: NTCP single concentration inhibition screen in HEK293 cells; type: cell-based; details: ≥10x [Iin max u]: atazanavir 50 μM, darunavir 15 μM, lopinavir 5 μM, ritonavir 0.3 μM; [3H]-taurocholic acid 1 μM
T1 construct: host or cells: HEK293 TransportoCells
T1 sequence (Q14973 1-349): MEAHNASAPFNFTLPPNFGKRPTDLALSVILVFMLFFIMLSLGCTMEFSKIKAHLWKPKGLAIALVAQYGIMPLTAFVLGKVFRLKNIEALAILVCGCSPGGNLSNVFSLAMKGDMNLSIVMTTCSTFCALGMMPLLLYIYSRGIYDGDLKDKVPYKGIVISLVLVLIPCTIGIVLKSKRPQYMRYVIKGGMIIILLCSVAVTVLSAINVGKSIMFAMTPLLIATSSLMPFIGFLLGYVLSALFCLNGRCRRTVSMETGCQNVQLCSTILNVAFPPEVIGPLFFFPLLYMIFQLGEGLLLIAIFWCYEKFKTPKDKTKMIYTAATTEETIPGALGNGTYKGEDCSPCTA

[2] = cited from earlier work; for Cmax: read-out: [Cmax] mean steady-state maximum plasma concentration, total drug; for fu fraction unbound: in plasma, ref drug label accessed via Drugs@FDA database
human NTCP (SLC10A1) [3] = molecular target: T1, human NTCP (SLC10A1); test: NTCP inhibition in transporter-expressing HEK293 cells, [3H]-taurocholic acid uptake (IC50 determination); type: cell-based; details: for IC50: NTCP-mediated transport of [3H]-taurocholic acid (1 μM), HEK293
human OATP1B3 (SLCO1B3) = molecular target: T2, human OATP1B3 (SLCO1B3) (Homo sapiens, UniProt Q9NPD5); test: OATP1B3 inhibition in transporter-expressing HEK293 cells, [3H]-estradiol 17β-D-glucuronide uptake (IC50 determination); details: for IC50: OATP1B3-mediated transport of [3H]-estradiol 17β-D-glucuronide (0.02 μM), HEK293
T2 sequence (Q9NPD5 1-702): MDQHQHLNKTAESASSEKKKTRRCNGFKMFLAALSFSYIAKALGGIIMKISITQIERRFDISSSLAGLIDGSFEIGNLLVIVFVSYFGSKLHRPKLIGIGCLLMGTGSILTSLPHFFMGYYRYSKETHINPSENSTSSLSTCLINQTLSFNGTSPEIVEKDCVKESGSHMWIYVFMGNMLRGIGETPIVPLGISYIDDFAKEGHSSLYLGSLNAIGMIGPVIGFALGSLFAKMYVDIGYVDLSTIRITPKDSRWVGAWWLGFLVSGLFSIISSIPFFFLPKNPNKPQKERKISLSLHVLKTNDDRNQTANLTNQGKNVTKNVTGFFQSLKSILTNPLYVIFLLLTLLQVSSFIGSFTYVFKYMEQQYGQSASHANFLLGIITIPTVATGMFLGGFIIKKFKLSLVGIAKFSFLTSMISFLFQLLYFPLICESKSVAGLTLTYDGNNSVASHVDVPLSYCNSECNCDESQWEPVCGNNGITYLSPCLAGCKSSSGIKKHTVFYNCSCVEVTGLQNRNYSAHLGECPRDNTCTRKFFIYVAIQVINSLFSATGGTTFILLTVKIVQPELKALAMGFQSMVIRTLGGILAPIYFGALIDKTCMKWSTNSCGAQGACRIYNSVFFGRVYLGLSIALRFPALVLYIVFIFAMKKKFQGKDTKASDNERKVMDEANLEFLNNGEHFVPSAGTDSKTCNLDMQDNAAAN
Method: (§1) OATP1B1, OATP1B3, NTCP and vector control cell lines were cultured and subsequent transporter assays conducted as described above using the same transporter‐specific probe substrates and incubation times. For OATP1B1, the probe substrate was [^3H]‐estradiol 17β‐D‐glucuronide (0.02 μM) incubated for 2 min, with rifamycin SV (100 μM) as positive control inhibitor. For IC50 determinations, the only difference to the method performed above was that the 15‐min pre‐incubation step contained a range of six concentrations of protease inhibitor drug, and subsequent incubations were conducted with the same six concentration levels of drug rather than with a single concentration.

OAT3 = test system: OAT3; set-up: method as in Yoshida et al.[32]; details: up to 10 μM; ref Yoshida et al.[32]; cited from earlier work
[4] = test system: intestinal BCRP and hepatic OATP1B1, OATP1B3, NTCP
OATP1B1 = molecular target: T3, OATP1B1 (Homo sapiens, UniProt Q9Y6L6); test: OATP1B1 inhibition in transporter-expressing HEK293 cells, [3H]-estradiol 17β-D-glucuronide uptake (IC50 determination); details: human, HEK293 cells expressing OATP1B1 (with vector control cells), pH 7.4, probe [3H]-estradiol 17β-D-glucuronide (0.02 μM), IC50, determined values from different occasions (OATP1B1), OATP1B1-mediated transport of [3H]-estradiol 17β-D-glucuronide (0.02 μM), HEK293; single occasion
T3 sequence (Q9Y6L6 1-691): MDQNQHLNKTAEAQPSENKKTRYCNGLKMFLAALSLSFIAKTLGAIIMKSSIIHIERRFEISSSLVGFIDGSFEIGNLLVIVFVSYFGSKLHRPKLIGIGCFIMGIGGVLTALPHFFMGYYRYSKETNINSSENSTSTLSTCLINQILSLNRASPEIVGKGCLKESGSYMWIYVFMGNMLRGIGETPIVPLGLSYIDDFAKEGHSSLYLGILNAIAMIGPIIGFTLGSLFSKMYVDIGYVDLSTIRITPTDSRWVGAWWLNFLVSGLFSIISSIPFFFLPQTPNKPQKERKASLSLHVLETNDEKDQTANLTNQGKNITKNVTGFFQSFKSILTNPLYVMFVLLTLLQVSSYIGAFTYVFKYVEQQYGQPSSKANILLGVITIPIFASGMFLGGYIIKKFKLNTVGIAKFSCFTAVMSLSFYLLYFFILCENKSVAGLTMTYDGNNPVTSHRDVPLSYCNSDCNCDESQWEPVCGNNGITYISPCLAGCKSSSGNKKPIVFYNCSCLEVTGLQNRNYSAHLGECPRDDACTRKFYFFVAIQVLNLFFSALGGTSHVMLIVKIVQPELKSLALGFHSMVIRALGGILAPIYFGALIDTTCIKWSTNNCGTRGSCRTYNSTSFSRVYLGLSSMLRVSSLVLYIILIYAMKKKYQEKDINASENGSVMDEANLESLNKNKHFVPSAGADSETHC
Method: as §1

[5] = mean (±SD) of three occasions, read-out: IC50 mean (NTCP)
[6] = single occasion, read-out: IC50, determined values from different occasions (NTCP)
[7] = IC50, determined values from different occasions (OATP1B3), single occasion
[8] = IC50 mean (OATP1B3), mean (±SD) of three occasions

Structure (SMILES)	Inhibition of NTCP-mediated probe substrate transport, single concentration screen (human NTCP (SLC10A1) [1])	Cmax ([2]; 400 mg, ref Elsby et al.[13])	fu fraction unbound [2]	IC50 (human NTCP (SLC10A1) [3]; [5])	IC50 (human NTCP (SLC10A1) [3]; [6])	IC50 (human OATP1B3 (SLCO1B3); [7])	IC50 (human OATP1B3 (SLCO1B3); [8])	Inhibition of OAT3, published (OAT3)	Cmax ([2]; clinical dose of Table 5, ref Elsby et al.[1])	R value (NTCP) (human NTCP (SLC10A1) [3]; FDA static equation R = 1 + [Iin max u]/Ki, potential for interaction if ≥1.1)	inhibition [4]	Mean OATP1B3 IC50 (Ki), fold lower than previously published (human OATP1B3 (SLCO1B3); against value with atorvastatin as probe substrate [33])	IC50 at 2 min (OATP1B1)
Cc1cccc(C)c1OCC(=O)N[C@@H](Cc1ccccc1)[C@@H](O)C[C@H](Cc1ccccc1)NC(=O)[C@H](C(C)C)N1CCCNC1=O [lopinavir]	produced inhibition	14.6 µM	0.02	20.3 µM	22.6 µM and 18.4 µM and 19.9 µM	5.14 µM and 5.04 µM and 4.95 µM	5.04 ± 0.095 µM	no inhibition	–	–	–	–	–
COC(=O)N[C@H](C(=O)N[C@@H](Cc1ccccc1)[C@@H](O)CN(Cc1ccc(-c2ccccn2)cc1)NC(=O)[C@@H](NC(=O)OC)C(C)(C)C)C(C)(C)C [atazanavir]	produced inhibition	–	0.14	65.6 µM	55.9 µM and 63.8 µM and 77.1 µM	1.75 µM and 2.41 µM and 1.43 µM	1.86 µM	no inhibition	8.68 µM	1.07	~80% and 75%	3.9 fold	0.928 µM
